# Results published in patent US8030300B2, “Ligands for nicotinic acetylcholine receptors, and methods of making and using them” (priority 2003, dated 2011).
# Like-named read-outs stand apart in the source and are kept apart here.
# Tests used:
# [1] = target: T1, α3β2 nAChR subtype (Rattus norvegicus, UniProt P04757+P12390); experiment: biochemical; format: binding; conditions: mean of 3 independent measurements
# T1 construct: expressed in transfected cells
# From the text: (§1) In order to assess the steric and hydropathic effects of the C-5 substituents of the pyridine on the binding affinity and subtype-selectivity at neuronal nicotinic acetylcholine receptors. […] The binding affinity ratios for a ligand, calculated from its affinities at an α subunit paired with either the β2 osubunit or the β4 subunit, represents a measure of the selectivity of that ligand with regard to the β subunits.
# [2] = target: T2, α2β2 nAChR subtype (Rattus norvegicus, UniProt P12389+P12390); experiment: biochemical; format: binding; conditions: mean of 3 independent measurements
# T2 construct: expressed in transfected cells
# T2 sequence (P12390 25-500): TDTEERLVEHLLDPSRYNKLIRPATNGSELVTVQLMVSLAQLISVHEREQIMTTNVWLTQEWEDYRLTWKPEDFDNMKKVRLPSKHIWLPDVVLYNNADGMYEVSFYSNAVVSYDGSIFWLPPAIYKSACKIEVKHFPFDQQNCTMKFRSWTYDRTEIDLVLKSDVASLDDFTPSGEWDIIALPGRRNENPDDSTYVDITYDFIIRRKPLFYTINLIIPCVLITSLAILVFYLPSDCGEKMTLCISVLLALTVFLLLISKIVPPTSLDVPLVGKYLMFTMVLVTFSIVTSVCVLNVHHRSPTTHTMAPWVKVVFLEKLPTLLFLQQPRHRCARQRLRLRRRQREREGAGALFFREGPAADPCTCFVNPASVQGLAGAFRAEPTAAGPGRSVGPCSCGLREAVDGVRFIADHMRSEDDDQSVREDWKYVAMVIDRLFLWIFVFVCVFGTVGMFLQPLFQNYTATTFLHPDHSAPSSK
# T2 sequence (P12389 28-511): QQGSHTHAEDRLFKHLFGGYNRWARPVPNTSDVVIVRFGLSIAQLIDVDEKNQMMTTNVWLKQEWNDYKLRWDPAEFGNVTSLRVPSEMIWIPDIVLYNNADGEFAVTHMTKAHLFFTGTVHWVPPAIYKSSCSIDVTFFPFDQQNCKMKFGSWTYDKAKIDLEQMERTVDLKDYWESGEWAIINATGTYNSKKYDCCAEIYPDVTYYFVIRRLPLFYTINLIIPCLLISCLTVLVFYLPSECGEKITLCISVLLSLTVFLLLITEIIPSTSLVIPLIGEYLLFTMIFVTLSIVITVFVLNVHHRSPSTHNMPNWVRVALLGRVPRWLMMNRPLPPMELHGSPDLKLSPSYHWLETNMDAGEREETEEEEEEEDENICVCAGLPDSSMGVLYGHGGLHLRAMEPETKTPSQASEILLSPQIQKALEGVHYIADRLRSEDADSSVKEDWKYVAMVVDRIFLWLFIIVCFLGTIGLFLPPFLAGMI
# From the text: as §1
# [3] = target: T3, α3β4 nAChR subtype (Rattus norvegicus, UniProt P04757+P12392); experiment: biochemical; format: binding; conditions: mean of 3 independent measurements
# T3 construct: expressed in transfected cells
# T3 sequence (P04757 26-499): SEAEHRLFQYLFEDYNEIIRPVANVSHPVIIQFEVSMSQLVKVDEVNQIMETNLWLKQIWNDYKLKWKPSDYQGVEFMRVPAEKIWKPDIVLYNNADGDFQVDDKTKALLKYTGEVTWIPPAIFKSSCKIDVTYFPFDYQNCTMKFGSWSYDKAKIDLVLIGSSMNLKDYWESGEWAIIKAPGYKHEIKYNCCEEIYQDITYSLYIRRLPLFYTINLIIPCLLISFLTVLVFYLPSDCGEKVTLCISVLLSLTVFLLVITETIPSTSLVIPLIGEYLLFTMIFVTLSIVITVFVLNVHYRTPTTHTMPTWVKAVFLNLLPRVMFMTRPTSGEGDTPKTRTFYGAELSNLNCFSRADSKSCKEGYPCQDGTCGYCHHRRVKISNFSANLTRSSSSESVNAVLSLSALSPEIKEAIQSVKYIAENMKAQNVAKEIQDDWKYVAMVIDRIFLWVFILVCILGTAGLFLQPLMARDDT
# T3 sequence (P12392 21-495): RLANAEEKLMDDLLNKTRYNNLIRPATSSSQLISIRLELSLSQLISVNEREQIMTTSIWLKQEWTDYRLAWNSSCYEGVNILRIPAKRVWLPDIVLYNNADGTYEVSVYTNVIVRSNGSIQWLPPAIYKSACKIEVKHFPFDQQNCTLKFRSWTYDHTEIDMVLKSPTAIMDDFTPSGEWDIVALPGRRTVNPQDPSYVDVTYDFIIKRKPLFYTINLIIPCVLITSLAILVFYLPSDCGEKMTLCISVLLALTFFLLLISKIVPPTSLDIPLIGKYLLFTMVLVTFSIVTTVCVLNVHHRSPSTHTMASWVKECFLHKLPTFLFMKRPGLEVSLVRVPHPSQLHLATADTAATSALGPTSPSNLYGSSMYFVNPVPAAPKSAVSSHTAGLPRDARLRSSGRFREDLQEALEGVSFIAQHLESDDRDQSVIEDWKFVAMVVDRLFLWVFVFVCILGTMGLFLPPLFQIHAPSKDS
# From the text: as §1
# [4] = target: T4, α4β4 nAChR subtype (Rattus norvegicus, UniProt P09483+P12392); experiment: biochemical; format: binding; conditions: mean of 3 independent measurements
# T4 construct: expressed in transfected cells
# T4 sequence (P12392 21-495): as above
# T4 sequence (P09483 31-630): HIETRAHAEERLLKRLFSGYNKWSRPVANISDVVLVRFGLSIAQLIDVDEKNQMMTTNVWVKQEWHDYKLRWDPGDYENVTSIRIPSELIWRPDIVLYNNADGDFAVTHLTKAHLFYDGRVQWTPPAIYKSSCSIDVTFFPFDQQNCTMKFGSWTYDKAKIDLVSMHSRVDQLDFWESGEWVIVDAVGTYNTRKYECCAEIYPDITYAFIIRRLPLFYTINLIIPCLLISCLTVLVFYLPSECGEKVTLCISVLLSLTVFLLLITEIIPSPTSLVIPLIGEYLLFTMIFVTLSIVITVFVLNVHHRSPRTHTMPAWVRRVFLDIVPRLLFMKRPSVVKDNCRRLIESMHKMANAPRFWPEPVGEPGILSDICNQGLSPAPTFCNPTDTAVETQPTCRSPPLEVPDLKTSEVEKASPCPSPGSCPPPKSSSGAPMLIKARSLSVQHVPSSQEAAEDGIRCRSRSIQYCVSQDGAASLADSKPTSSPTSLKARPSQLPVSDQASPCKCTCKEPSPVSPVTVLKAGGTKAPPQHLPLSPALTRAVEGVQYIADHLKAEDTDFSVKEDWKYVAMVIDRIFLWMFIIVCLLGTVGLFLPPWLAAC
# From the text: as §1
# [5] = target: T5, α4β2 nAChR subtype (Rattus norvegicus, UniProt P09483+P12390); experiment: biochemical; format: binding; conditions: for Ki: mean of 3 independent measurements
# T5 construct: expressed in transfected cells
# T5 sequence (P12390 25-500): as the sequence (P12390 25-500) above
# T5 sequence (P09483 31-630): as the sequence (P09483 31-630) above
# From the text: as §1
# [6] = target: T6, α2β4 nAChR subtype (Rattus norvegicus, UniProt P12389+P12392); experiment: biochemical; format: binding; conditions: mean of 3 independent measurements
# T6 construct: expressed in transfected cells
# T6 sequence (P12389 28-511): as the sequence (P12389 28-511) above
# T6 sequence (P12392 21-495): as the sequence (P12392 21-495) above
# From the text: as §1
# [7] = system: receptors in rat forebrain (mainly α4β2); experiment: biochemical; format: binding; conditions: Table 3; ratio of the corresponding Ki values
# [8] = target: T7, receptors in rat forebrain (mainly α4β2) (Rattus norvegicus, UniProt P09483+P12390); experiment: biochemical; format: binding; conditions: Table 3, mean of 3 independent measurements
# T7 construct: from tissue; host or cells: rat forebrain homogenate
# T7 sequence (P09483 31-630): as the sequence (P09483 31-630) above
# T7 sequence (P12390 25-500): as the sequence (P12390 25-500) above
# [9] = background b17; approximate; cited from earlier work
# T1 sequence (P12390 25-500): as above
# T1 sequence (P04757 26-499): as the sequence (P04757 26-499) above
compound,measurement,setting,value
OCCCCC#Cc1cncc(OC[C@@H]2CCCN2)c1 [Ligand 27],Ki,"[1]; Table 3, read-out: Ki α3β2",2.69 nM
same,Ki,"[2]; Table 3, read-out: Ki α2β2",1.51 nM
same,Ki,"[3]; Table 3, read-out: Ki α3β4",16100 nM
same,Ki,"[4]; Table 3, read-out: Ki α4β4",778 nM
same,Ki,"[5]; Table 3, read-out: Ki α4β2",0.665 nM
same,"more selective for α4β2 over α3β4 than the corresponding parent compounds 7, 8, and 2",[5]; text b210,2 orders of magnitude
same,Ki,"[6]; Table 3, read-out: Ki α2β4",835 nM
same,Affinity ratio (α3β4/Forbrain),[7],"14,000"
same,Ki,[8]; read-out: Ki Forebrain,1.15 nM
FCCCCC#Cc1cncc(OC[C@@H]2CCCN2)c1 [Ligand 42],Ki,"[1]; Table 3, read-out: Ki α3β2",5.27 nM
same,Ki,"[2]; Table 3, read-out: Ki α2β2",3.5 nM
same,Ki,"[3]; Table 3, read-out: Ki α3β4",7580 nM
same,Ki,"[4]; Table 3, read-out: Ki α4β4",721 nM
same,affinities for α4β2 nAChR subtype (in words),[5],subnanomolar
same,Ki,"[5]; Table 3, read-out: Ki α4β2",0.907 nM
same,Ki,"[6]; Table 3, read-out: Ki α2β4",680 nM
same,Affinity ratio (α3β4/Forbrain),[7],"2,197"
same,Ki,[8]; read-out: Ki Forebrain,3.45 nM
"Clc1ccc(C2CC3CCC2N3)cn1 (racemic) [Epibatidine, 2-exo-(2-Chloro-5-pyridyl)-7-azabicyclo[2.2.1]heptane]","analgesic potency, times that of morphine",[9],~500 times
OCCCCC#Cc1ccc(C2CC3CCC2N3)cn1 (centres unmarked) [Ligand 34],Ki,"[1]; Ki α3β2, Table 3",19.8 nM
same,Ki,"[2]; Ki α2β2, Table 3",16.9 nM
same,Ki,"[3]; Ki α3β4, Table 3",95.4 nM
same,Ki,"[4]; Ki α4β4, Table 3",61.8 nM
same,Ki,"[5]; Ki α4β2, Table 3",67.7 nM
same,folds lower binding affinities than epibatidine at the nAChRs,[5]; text b208,200-1000 folds
same,subtype selectivity among the neuronal nAChRs,[5]; text b208,less than 6 fold
same,Ki,"[6]; Ki α2β4, Table 3",67.4 nM
same,Affinity ratio (α3β4/Forbrain),[7],2
same,Ki,[8]; Ki Forebrain,52 nM
